Source: US7772180B2, “Hepatitis C virus inhibitors” (Bristol-Myers Squibb Company, priority 2006, dated 2010)
Where two headings read alike, the source gives them in different places.

How the values were obtained:
[1] = target: T1, HCV NS3/4A protease complex, BMS strain (UniProt P27958, species not given/STRAIN_BMS); test: FRET peptide assay to monitor HCV NS3/4A proteolytic activity (BMS strain); assay type: biochemical, Hepatitis C virus (genotype 1a); conditions: read-out: HCV Protease (IC50), NS3/4A BMS strain
T1 construct: other: NS3/4A BMS strain; activity range class; numeric values, unit not given; said of H77 and J4L6S; fused on or other part: A three-lysine solubilising tail at the C-terminus of NS4A; A His tag is implied by the pET21b vector and Ni-NTA purification; Both are printed for the H77 and J4L6S constructs and apply to BMS by inference
T1 sequence (P27958 1027-1657, change not shown, one chain of several): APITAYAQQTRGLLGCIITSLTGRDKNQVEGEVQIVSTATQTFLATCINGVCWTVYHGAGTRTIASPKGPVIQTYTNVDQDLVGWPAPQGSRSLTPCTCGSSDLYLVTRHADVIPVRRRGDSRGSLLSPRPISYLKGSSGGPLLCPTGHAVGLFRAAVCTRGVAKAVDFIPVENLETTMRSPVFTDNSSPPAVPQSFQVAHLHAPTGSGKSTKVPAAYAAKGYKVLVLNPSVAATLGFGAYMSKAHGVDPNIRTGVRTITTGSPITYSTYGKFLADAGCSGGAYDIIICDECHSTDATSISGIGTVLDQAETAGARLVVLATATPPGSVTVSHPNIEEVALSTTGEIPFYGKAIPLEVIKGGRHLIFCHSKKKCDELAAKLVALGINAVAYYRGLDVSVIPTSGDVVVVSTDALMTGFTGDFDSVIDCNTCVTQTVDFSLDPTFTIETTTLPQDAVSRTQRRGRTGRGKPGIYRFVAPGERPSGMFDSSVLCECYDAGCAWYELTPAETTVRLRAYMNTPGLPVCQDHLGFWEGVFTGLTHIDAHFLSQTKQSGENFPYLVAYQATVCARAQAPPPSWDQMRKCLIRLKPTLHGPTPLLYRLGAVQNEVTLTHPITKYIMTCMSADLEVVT
Procedure, shortened: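 Purified recombinant NS3/4A complex from genotype 1a BMS strain, 2-3 nM final, with RET S1 EDANS/DABCYL depsipeptide substrate at 2 μM final in HEPES pH 7.5, NaCl, Triton, glycerol, βME. Cleavage followed in real time by fluorescence. For high-potency compounds: 50 μg/ml BSA added, protease lowered to 300 pM.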

[2] = test system: HCV replicon (strain 1b) in HUH-7 cells; test: HCV replicon FRET assay; assay type: cell-based, Hepatitis C virus
[3] = Hepatitis C virus, Huh-7, read-out: HCV Pro Replicon (EC50), HCV replicon cell assay, activity range class
[4] = Hepatitis C virus, Huh-7, read-out: HCV Pro Replicon (EC50), HCV replicon cell assay, numeric values, unit inferred
[5] = read-out: HCV Pro Replicon (EC50), HCV replicon cell assay, activity range class

**Q.** `C=C[C@@H]1C[C@]1(NC(=O)[C@@H]1C[C@@H](Oc2ncc(OC)c3ccc(Cl)cc23)CN1C(=O)[C@H](Nc1ccc(C(=O)N(C)C)cc1)C(C)(C)C)C(=O)NS(=O)(=O)C1CC1` [221 second isomer, N-(4-(dimethylcarbamoyl)phenyl)-3-methyl-D-valyl-(4R)-4-((7-chloro-4-methoxy-1-isoquinolinyl)oxy)-N-((1R,2S)-1-((cyclopropylsulfonyl)carbamoyl)-2-vinylcyclopropyl)-L-prolinamide] was tested. Which IC50 ([1]; activity range class) did it give?
**A.** The IC50 was 20 to 200 nM.

**Q.** What about the EC50 [2, 3] of the same molecule?
**A.** Its EC50 is greater than 1000 nM.

**Q.** For `C=C[C@@H]1C[C@]1(NC(=O)[C@@H]1C[C@@H](Oc2ncc(OC)c3ccc(Cl)cc23)CN1C(=O)C(C)Nc1nsnc1OC)C(=O)NS(=O)(=O)C1CC1` (stereo partly drawn) [Compound 238], which IC50 ([1]; activity range class) is on record?
**A.** The IC50 was 20 to 200 nM.

**Q.** What about the EC50 [2, 3] of the same molecule?
**A.** Its EC50 is 100 to 1000 nM.

**Q.** With `C=C[C@@H]1C[C@]1(NC(=O)[C@@H]1C[C@@H](Oc2ncc(OC)c3ccc(Cl)cc23)CN1C(=O)C(CC)Nc1nsnc1OC)C(=O)NS(=O)(=O)C1CC1` (stereo partly drawn) [Compound 240] as the molecule, how does the IC50 ([1]; activity range class) read?
**A.** Its IC50 is 0.6 to 20 nM.

**Q.** What about the EC50 [2, 3] of the same molecule?
**A.** Its EC50 is 100 to 1000 nM.

**Q.** `C=C[C@@H]1C[C@]1(NC(=O)[C@@H]1C[C@@H](Oc2nccc3cc(OC)ccc23)CN1C(=O)[C@H](Nc1ccccc1)C(C)(C)C)C(=O)NS(=O)(=O)C1CC1` [Compound 15B, 3-methyl-N-phenyl-D-valyl-(4R)—N-((1R,2S)-1-((cyclopropylsulfonyl)carbamoyl)-2-vinylcyclopropyl)-4-((6-methoxy-1-isoquinolinyl)oxy)-L-prolinamide] was tested. Which IC50 ([1]; numeric values, unit inferred) did it give?
**A.** The IC50 was 1900 nM.

**Q.** And the EC50 [2, 4]?
**A.** Its EC50 is 3380 nM.

**Q.** What does the source list for `C=C[C@@H]1C[C@]1(NC(=O)[C@@H]1C[C@@H](Oc2ncc(OC)c3ccc(Cl)cc23)CN1C(=O)[C@H](Nc1cccc(C(=O)OC(C)C)c1)C(C)(C)C)C(=O)NS(=O)(=O)C1CC1` [231 second isomer, N-(3-(isopropoxycarbonyl)phenyl)-3-methyl-D-valyl-(4R)-4-((7-chloro-4-methoxy-1-isoquinolinyl)oxy)-N-((1R,2S)-1-((cyclopropylsulfonyl)carbamoyl)-2-vinylcyclopropyl)-L-prolinamide]?
**A.** IC50 ([1]; activity range class): > 200 nM; EC50 [2, 3]: > 1000 nM

**Q.** Which IC50 ([1]; activity range class) does the source give for `C=C[C@@H]1C[C@]1(NC(=O)[C@@H]1C[C@@H](Oc2ncc(OC)c3ccc(Cl)cc23)CN1C(=O)C(Nc1cncnc1)C(C)C)C(=O)NS(=O)(=O)C1CC1` (single isomer, unassigned) [24 second isomer] here?
**A.** The IC50 was greater than 200 nM.

**Q.** And the EC50 [2, 3]?
**A.** The EC50 was greater than 1000 nM.

**Q.** Which results are given for `C=C[C@@H]1C[C@]1(NC(=O)[C@@H]1C[C@@H](Oc2nccc3cc(OC)ccc23)CN1C(=O)C(Nc1cc(OC)ccn1)C(C)C)C(=O)NS(=O)(=O)C1CC1` (single isomer, unassigned) [Compound 8]?
**A.** IC50 ([1]; activity range class): 20 to 200 nM; EC50 [2, 3]: 3 to 100 nM

**Q.** `C=C[C@@H]1C[C@]1(NC(=O)[C@@H]1C[C@@H](Oc2ncc(OC)c3ccc(Cl)cc23)CN1C(=O)[C@H](Nc1ccc(F)c(F)c1)C(C)(C)C)C(=O)NS(=O)(=O)C1CC1` [220 second isomer, N-(3,4-difluorophenyl)-3-methyl-D-valyl-(4R)-4-((7-chloro-4-methoxy-1-isoquinolinyl)oxy)-N-((1R,2S)-1-((cyclopropylsulfonyl)carbamoyl)-2-vinylcyclopropyl)-L-prolinamide] was tested. Which IC50 ([1]; activity range class) did it give?
**A.** Its IC50 is greater than 200 nM.

**Q.** And the EC50 [2, 3]?
**A.** Its EC50 is 100 to 1000 nM.

**Q.** For `C=C[C@@H]1C[C@]1(NC(=O)[C@@H]1C[C@@H](Oc2ncc(OC)c3ccc(Cl)cc23)CN1C(=O)C(C)Nc1n[s+]([O-])nc1OCC)C(=O)NS(=O)(=O)C1CC1` (stereo partly drawn) [Compound 237], which IC50 ([1]; activity range class) is on record?
**A.** The IC50 was greater than 200 nM.

**Q.** What about the EC50 [2, 3] of the same molecule?
**A.** Its EC50 is greater than 1000 nM.

**Q.** With `C=C[C@@H]1C[C@]1(NC(=O)[C@@H]1C[C@@H](Oc2ncc(OC)c3ccc(Cl)cc23)CN1C(=O)[C@@H](Nc1cccc(C(=O)NC(C)(C)C)c1)C(C)(C)C)C(=O)NS(=O)(=O)C1CC1` [212 first isomer, N-(3-(tert-butylcarbamoyl)phenyl)-3-methyl-L-valyl-(4R)-4-((7-chloro-4-methoxy-1-isoquinolinyl)oxy)-N-((1R,2S)-1-((cyclopropylsulfonyl)carbamoyl)-2-vinylcyclopropyl)-L-prolinamide] as the molecule, how does the IC50 ([1]; activity range class) read?
**A.** Its IC50 is greater than 200 nM.

**Q.** And the EC50 [2, 3]?
**A.** The EC50 was 100 to 1000 nM.

**Q.** Which results are given for `C=C[C@@H]1C[C@]1(NC(=O)[C@@H]1C[C@@H](Oc2ncc(OC)c3ccc(Cl)cc23)CN1C(=O)[C@H](Nc1cccc(C(=O)OC(C)(C)C)c1)C(C)(C)C)C(=O)NS(=O)(=O)C1CC1` [210 second isomer, N-(3-(tert-butoxycarbonyl)phenyl)-3-methyl-D-valyl-(4R)-4-((7-chloro-4-methoxy-1-isoquinolinyl)oxy)-N-((1R,2S)-1-((cyclopropylsulfonyl)carbamoyl)-2-vinylcyclopropyl)-L-prolinamide]?
**A.** IC50 ([1]; activity range class): 20 to 200 nM; EC50 [2, 3]: 100 to 1000 nM

**Q.** Which IC50 ([1]; activity range class) does the source give for `C=C[C@@H]1C[C@]1(NC(=O)[C@@H]1C[C@@H](Oc2ncc(OC)c3ccc(Cl)cc23)CN1C(=O)[C@@H](Nc1ccc(F)c(F)c1)C(C)(C)C)C(=O)NS(=O)(=O)C1CC1` [220 first isomer, N-(3,4-difluorophenyl)-3-methyl-L-valyl-(4R)-4-((7-chloro-4-methoxy-1-isoquinolinyl)oxy)-N-((1R,2S)-1-((cyclopropylsulfonyl)carbamoyl)-2-vinylcyclopropyl)-L-prolinamide] here?
**A.** Its IC50 is 0.6 to 20 nM.

**Q.** And the EC50 [2, 3]?
**A.** The EC50 was 3 to 100 nM.

**Q.** `C=C[C@@H]1C[C@]1(NC(=O)[C@@H]1C[C@@H](Oc2ncc(OC)c3ccc(Cl)cc23)CN1C(=O)[C@@H](Nc1ccc(C(=O)O)cc1)C(C)(C)C)C(=O)NS(=O)(=O)C1CC1` [209 first isomer, N-(4-carboxyphenyl)-3-methyl-L-valyl-(4R)-4-((7-chloro-4-methoxy-1-isoquinolinyl)oxy)-N-((1R,2S)-1-((cyclopropylsulfonyl)carbamoyl)-2-vinylcyclopropyl)-L-prolinamide] was tested. Which IC50 ([1]; activity range class) did it give?
**A.** The IC50 was 0.6 to 20 nM.

**Q.** And the EC50 [2, 3]?
**A.** The EC50 was 3 to 100 nM.

**Q.** What does the source list for `C=CCCCCCC(Nc1ccc(OC)nc1)C(=O)N1C[C@H](Oc2ncc(OC)c3ccc(Cl)cc23)C[C@H]1C(=O)N[C@]1(C(=O)NS(=O)(=O)C2CC2)C[C@H]1C=C` (stereo partly drawn) [Compound 411]?
**A.** IC50 ([1]; activity range class): > 200 nM; EC50 [2, 5]: 100 to 1000 nM

**Q.** With `C=C[C@@H]1C[C@]1(NC(=O)[C@@H]1C[C@@H](Oc2ncc(OC)c3ccc(Cl)cc23)CN1C(=O)[C@H](Nc1ccc(S(=O)(=O)N(C)C)cc1)C(C)(C)C)C(=O)NS(=O)(=O)C1CC1` [224 second isomer, N-(4-(dimethylsulfamoyl)phenyl)-3-methyl-D-valyl-(4R)-4-((7-chloro-4-methoxy-1-isoquinolinyl)oxy)-N-((1R,2S)-1-((cyclopropylsulfonyl)carbamoyl)-2-vinylcyclopropyl)-L-prolinamide] as the molecule, how does the IC50 ([1]; activity range class) read?
**A.** Its IC50 is greater than 200 nM.

**Q.** What about the EC50 [2, 3] of the same molecule?
**A.** Its EC50 is 100 to 1000 nM.

**Q.** `C=C[C@@H]1C[C@]1(NC(=O)[C@@H]1C[C@@H](Oc2ncc(OC)c3ccc(Cl)cc23)CN1C(=O)C(Nc1cccc(C)n1)C(C)(C)C)C(=O)NS(=O)(=O)C1CC1` (single isomer, unassigned) [28 first isomer] was tested. Which IC50 ([1]; activity range class) did it give?
**A.** The IC50 was 0.6 to 20 nM.

**Q.** And the EC50 [2, 5]?
**A.** The EC50 was 3 to 100 nM.

**Q.** Which results are given for `C=C[C@@H]1C[C@]1(NC(=O)[C@@H]1C[C@@H](Oc2ncc(OC)c3ccc(Cl)cc23)CN1C(=O)C(Nc1cncnc1)C(C)C)C(=O)NS(=O)(=O)C1CC1` (single isomer, unassigned) [Compound 24A]?
**A.** IC50 ([1]; numeric values, unit inferred): 26 nM; EC50 [2, 4]: 593 nM

**Q.** With `C=C[C@@H]1C[C@]1(NC(=O)[C@@H]1C[C@@H](Oc2nccc3cc(OC)ccc23)CN1C(=O)[C@@H](Nc1nc(C)cc(C)n1)C(C)C)C(=O)NS(=O)(=O)C1CC1` [6 second isomer, N-(4,6-dimethyl-2-pyrimidinyl)-L-valyl-(4R)—N-((1R,2S)-1-((cyclopropylsulfonyl)carbamoyl)-2-vinylcyclopropyl)-4-((6-methoxy-1-isoquinolinyl)oxy)-L-prolinamide] as the molecule, how does the IC50 ([1]; activity range class) read?
**A.** The IC50 was 0.6 to 20 nM.

**Q.** And the EC50 [2, 3]?
**A.** Its EC50 is 100 to 1000 nM.
